According to patent US8217055B2, “Pyrido-pyrazine derivatives useful as herbicidal compounds” (Syngenta Crop Protection LLC, priority 2006, dated 2012):

How the values were obtained:
Type in all cases: in vivo
Amaranthus retroflexus [1] = assay: Example B1 herbicidal action, post-emergence, seed trays in climatic chamber (score 10=total damage to plant, 0=no damage to plant); details: Application post-emergence, 1000 g/ha, evaluated after 9 days
Method: (§1) Seeds of a variety of test species were sown in sterilised standard soil in seed trays each having 96 cells. After cultivation for 8 to 9 days cultivation (post-emergence) under controlled conditions in a climatic chamber (cultivation at 23/17° C., day/night; 13 hours light; 50-60% humidity), the plants were treated with an aqueous spray solution of 1000 mg/l of the active ingredient dissolved in 10% DMSO (dimethyl sulfoxide, CAS RN 67-68-5) as a solvent, equivalent to 1000 g/ha. The plants were grown in the climatic chamber after application at (24/19° C., day/night; 13 hours light; 50-60% humidity) and watered twice daily. After 9 days until the test was evaluated (10=total damage to plant, 0=no damage to plant)

Nasturtium officinale = assay: as above; details: Application post-emergence, 1000 g/ha, evaluated after 9 days
Method: as §1

Solanum nigrum [2] = assay: as above; details: Application post-emergence, 1000 g/ha, evaluated after 9 days
Method: as §1

Stellaria media = assay: as above; details: Application post-emergence, 1000 g/ha, evaluated after 9 days
Method: as §1

Amaranthus retroflexus [3] = assay: Example B2 herbicidal action, post-emergence, pots in glasshouse, evaluated after 13 days (10=total damage to plant; 0=no damage to plant); details: rate 1000 g/ha
Method: (§2) Seeds of a variety of test species were sown in standard soil in pots. After 8 days cultivation (post-emergence) under controlled conditions in a glasshouse (at 24/16° C., day/night; 14 hours light; 65% humidity), the plants were sprayed with an aqueous spray solution derived from the formulation of the technical active ingredient in acetone/water (50:50) solution containing 0.5% Tween 20 (polyoxyethelyene sorbitan monolaurate, CAS RN 9005-64-5). The test plants were then grown in a glasshouse under controlled conditions in a glasshouse (at 24/16° C., day/night; 14 hours light; 65% humidity) and watered twice daily. After 13 days, the test was evaluated (10=total damage to plant; 0=no damage to plant).

Echinochloa crus-galli = assay: as above; details: rate 1000 g/ha
Method: as §2

Ipomea hederaceae = assay: as above; details: rate 1000 g/ha
Method: as §2

Setaria faberi = assay: as above; details: rate 1000 g/ha
Method: as §2

Solanum nigrum [4] = assay: as above; details: rate 1000 g/ha
Method: as §2

Row | Structure (SMILES) | AMARE (damage to plant) (Amaranthus retroflexus [1]) | NAAOF (damage to plant) (Nasturtium officinale) | SOLNI (damage to plant) (Solanum nigrum [2]) | STEME (damage to plant) (Stellaria media) | AMARE damage score (10=total damage to plant; 0=no damage to plant) (Amaranthus retroflexus [3]) | ECHCG damage score (10=total damage to plant; 0=no damage to plant) (Echinochloa crus-galli) | IPOHE damage score (10=total damage to plant; 0=no damage to plant) (Ipomea hederaceae) | SETFA damage score (10=total damage to plant; 0=no damage to plant) (Setaria faberi) | SOLNI damage score (10=total damage to plant; 0=no damage to plant) (Solanum nigrum [4])
1 | CC(C)(C)C(=O)Oc1c(-c2ccccc2OC(F)(F)F)c(=O)n(CC(F)F)c2nccnc12 [A1] | 0 | 8 | 6 | 7 | – | – | – | – | –
2 | CC(C)(C)C(=O)Oc1c(-c2c(F)ccc(F)c2Cl)c(=O)n(CC(F)F)c2nccnc12 [A2, 2,2-dimethyl-propionic acid 7-(2-chloro-3,6-difluoro-phenyl)-5-(2,2-difluoro-ethyl)-6-oxo-5,6-dihydro-pyrido[2,3-b]pyrazin-8-yl ester] | 4 | 9 | 6 | 9 | – | – | – | – | –
3 | CC(C)C(=O)Oc1c(-c2c(F)ccc(F)c2Cl)c(=O)n(CC(F)F)c2nccnc12 [A3] | 6 | 7 | 5 | 9 | – | – | – | – | –
4 | CCc1cc(C)cc(CC)c1-c1c(O)c2nccnc2n(CC(F)F)c1=O [B4] | – | – | – | – | 7 | 8 | 10 | 9 | 10
5 | Cc1cc(C)c(-c2c(O)c3nccnc3n(CC(F)F)c2=O)c(C)c1 [B5] | – | – | – | – | 7 | 8 | 10 | 8 | 10
6 | O=c1c(-c2c(F)ccc(Br)c2Cl)c(O)c2nccnc2n1CC(F)F [B6] | – | – | – | – | 10 | 8 | 10 | 8 | 10
7 | O=c1c(-c2cc(F)ccc2Cl)c(O)c2nccnc2n1CC(F)F [B7] | – | – | – | – | 10 | 7 | 9 | 7 | 9
8 | COc1ccc(OC(F)(F)F)cc1-c1c(O)c2nccnc2n(CC(F)F)c1=O [B8] | – | – | – | – | 10 | 9 | 9 | 9 | 9
9 | O=c1c(-c2c(F)ccc([N+](=O)[O-])c2Cl)c(O)c2nccnc2n1CC(F)F [B9] | – | – | – | – | 9 | 8 | 8 | 7 | 9
10 | O=c1c(-c2cc(Cl)ccc2C(F)(F)F)c(O)c2nccnc2n1CC(F)F [B10] | – | – | – | – | 10 | 9 | 10 | 9 | 10
11 | O=c1c(-c2c(Cl)ccc(Cl)c2Cl)c(O)c2nccnc2n1CC(F)F [B11, 5-(2,2-difluoro-ethyl)-8-hydroxy-7-(2,3,6-trichloro-phenyl)-5H-pyrido[2,3-b]pyrazin-6-one] | – | – | – | – | 10 | 8 | 10 | 9 | 10
12 | COc1ccc(Br)cc1-c1c(O)c2nccnc2n(CC(F)F)c1=O [B12] | – | – | – | – | 9 | 6 | 6 | 6 | 9
13 | O=c1c(-c2c(Cl)cccc2C(F)(F)F)c(O)c2nccnc2n1CC(F)F [B13] | – | – | – | – | 10 | 9 | 10 | 9 | 10
14 | O=c1c(-c2c(F)ccc(Cl)c2Cl)c(O)c2nccnc2n1CC(F)F [B14] | – | – | – | – | 10 | 6 | 10 | 7 | 10
15 | CC(C)(C)C(=O)Oc1c(-c2c(F)ccc(F)c2Cl)c(=O)n(CC(F)(F)F)c2nccnc12 [C8, 2,2-dimethyl-propionic acid 7-(2-chloro-3,6-difluoro-phenyl)-5-(2,2,2-trifluoro-ethyl)-6-oxo-5,6-dihydro-pyrido[2,3-b]pyrazin-8-yl ester] | – | – | – | – | 10 | 1 | 10 | 4 | 10
16 | CC(C)(C)C(=O)Oc1c(-c2c(F)ccc(F)c2Cl)c(=O)n(CCF)c2nccnc12 [C9, 2,2-dimethyl-propionic acid 7-(2-chloro-3,6-difluoro-phenyl)-5-(2-fluoro-ethyl)-6-oxo-5,6-dihydro-pyrido[2,3-b]pyrazin-8-yl ester] | – | – | – | – | 7 | 0 | 5 | 0 | 4
17 | CC(C)C(=O)Oc1c(-c2c(F)ccc(F)c2Cl)c(=O)n(CC(F)(F)F)c2nccnc12 [C10] | – | – | – | – | 10 | 3 | 10 | 6 | 10
18 | CC(C)(C)C(=O)Oc1c(-c2c(F)ccc(F)c2Cl)c(=O)n(CCC=C(F)F)c2nccnc12 [C11] | – | – | – | – | 5 | 0 | 0 | 0 | 2
19 | CC(C)(C)C(=O)Oc1c(-c2c(F)ccc(F)c2Cl)c(=O)n(CCC(F)=C(F)F)c2nccnc12 [C12] | – | – | – | – | 6 | 0 | 1 | 0 | 3
20 | CC(C)(C)C(=O)Oc1c(-c2c(F)ccc(F)c2Cl)c(=O)n(CC=C(Cl)Cl)c2nccnc12 [C13] | – | – | – | – | 0 | 0 | 1 | 0 | 3
21 | CC(C)C(=O)Oc1c(-c2c(F)ccc(F)c2Cl)c(=O)n(CC=C(Cl)Cl)c2nccnc12 [C14] | – | – | – | – | 8 | 0 | 1 | 0 | 8
22 | O=C1c2nccnc2N(CC(F)(F)F)C(=O)C1c1c(F)ccc(F)c1Cl (stereo not drawn) [D1] | – | – | – | – | 10 | 5 | 10 | 6 | 10
23 | O=C1c2nccnc2N(CCF)C(=O)C1c1c(F)ccc(F)c1Cl (stereo not drawn) [D2] | – | – | – | – | 6 | 1 | 5 | 2 | 7
24 | O=C1c2nccnc2N(CC=C(Cl)Cl)C(=O)C1c1c(F)ccc(F)c1Cl (stereo not drawn) [D3] | – | – | – | – | 9 | 0 | 7 | 3 | 7
